Results taken from patent publication US20260234128A1, “CRYSTALLINE FORMS OF 2-(4-(4-(AMINOMETHYL)-1-OXO-1,2- DIHYDROPHTHALAZIN-6-YL)-1-METHYL-1H- PYRAZOL-5-YL)-4-CHLORO-6-CYCLOPROPOXY-3-FLUOROBENZONITRILE” (MIRATI THERAPEUTICS, INC., priority 2023, published 2026).
Counter-ions that a name gives are not always drawn.

Columns and labels:
[1] = Pharmacokinetics after oral capsule administration in male beagle dogs pre-treated with pentagastrin or famotidine; assay type: in vivo
Experimental: The substances were filled into Empty HPMC Capsules after correcting for potency and administered to dogs pre-treated with either pentagastrin or famotidine along with 40 mL of water. Pentagastrin enhances gastric secretions whereas famotidine neutralizes gastric sections. Therefore, pentagastrin and famotidine pre-treatments were used to simulate the impact of gastric pH on bioavailability and reduce the variability in gastric pH between dogs.
Plasma samples were collected at pre-defined intervals and analyzed for the concentration of Compound 1. The plasma concentration versus time data was analyzed by non-compartmental approaches using Win Nonlin software program to estimate PK parameters such as Cmax, Tmax, AUC0-t and AUC0-inf.

[2] = Intrinsic dissolution rate and drug in capsule dissolution in FaSSGF and FaSSIF; assay type: physicochemical
Experimental: The IDR rate was calculated using the slope of the linear curve divided by the surface area of tablet (0.5 cm^2). […] 0.6 mL liquid was removed with a syringe at each time point and filtered. The concentration of filtrates was analyzed by HPLC.

[3] = Excipient compatibility (binary mixtures, total impurity by HPLC); assay type: physicochemical
Excerpt: Binary mixtures of samples were created by mixing the substance and the excipients (1:10 Compound to Excipients for fillers and 1:1 for all other excipients) using a mortar and pestle and the resultant mixture was accurately weighed and transferred into sample vials. The excipients used were as follows: colloidal silicon dioxide 200, croscarmellose sodium, crospovidone XL-10, dibasic calcium phosphate (an), hydroxypropyl cellulose, lactose monohydrate, magnesium stearate, mannitol 100SD, MCC PH102, Opadry™ II, povidone K-30, pregelatinized starch 1500, sodium starch glycolate, and sodium stearyl fumarate. The sample vials were set down at 40° C./75% RH condition for 8 weeks in open condition before analyzing their impurity levels using HPLC.

[4] = Dynamic vapor sorption (DVS) hygroscopicity; assay type: physicochemical; conditions: for form change after DVS evaluation: sample after DVS
Experimental: The hygroscopicity of HCl Form A was also evaluated by conducting dynamic vapor sorption experiments.
The hygroscopicity of HCl Form B was also evaluated by conducting dynamic vapor sorption experiments.
The hygroscopicity of HCl Form E was also evaluated by conducting dynamic vapor sorption experiments.

[5] = Manufacturability and physical stability (compressibility, tabletability, compatibility, XRD after compaction); assay type: physicochemical
Experimental: The XRD patterns were compared with the uncompressed compound. X-ray powder diffractograms were obtained on a wide-angle X-ray diffraction instrument (X'Pert Pro; PANalytical Inc., West Borough, MA) using Cu Ká radiation. The voltage and current applied were 45 kV and 40 mA, respectively. Each measurement was performed with a step size of 0.0167° in the 2-theta range of 5-35° and a dwell time of 0.4 s.

[6] = Competitive slurry experiments (relative stability of crystal forms); assay type: physicochemical
Excerpt: Pattern A was observed under certain conditions during competitive slurry experiments. Pattern A was confirmed to be racemate by chiral HPLC analysis.

[7] = 25° C. between 10% relative humidity and 90% relative humidity, hydrochloride salt

With `Cn1ncc(-c2ccc3c(=O)[nH]nc(CN)c3c2)c1-c1c(F)c(Cl)cc(OC2CC2)c1C#N` [Free Base Form A, 2-(4-(4-(aminomethyl)-1-oxo-1,2-dihydrophthalazin-6-yl)-1-methyl-1H-pyrazol-5-yl)-4-chloro-6-cyclopropoxy-3-fluorobenzonitrile] the exposure ([1]; oral 100 mg/dog, when the particle size was normalized) was “equivalent exposure to HCl salt”, the “dissolution in gastric media” value ([2]; 37° C., 50 rpm, USP Type II) was “faster dissolution in gastric media” and the “super saturation in intestinal fluid” value ([2]; pH shifted from gastric to intestinal after 30 minutes) was “able to maintain super saturation in intestinal fluid”. The “compatibility with excipients (total impurity content)” value ([3]; binary mixtures, 40° C./75% RH, 8 weeks, open condition, HPLC) was “good compatibility with excipients”, the “sensitivity to individual excipients” value ([3]; colloidal silicon dioxide and lactose monohydrate, 40° C./75% RH, 8 weeks, open) was “more sensitive to colloidal silicon dioxide and lactose monohydrate than HCl Form B” and the “risk of chemical stability” value ([3]; with excipients, manageable by choice of excipients) was “slightly higher”.

For `Cn1ncc(-c2ccc3c(=O)[nH]nc(CN)c3c2)c1-c1c(F)c(Cl)cc(OC2CC2)c1C#N` [HCl Form A, 2-(4-(4-(aminomethyl)-1-oxo-1,2-dihydrophthalazin-6-yl)-1-methyl-1H-pyrazol-5-yl)-4-chloro-6-cyclopropoxy-3-fluorobenzonitrile hydrochloride salt], the “water uptake (DVS isotherm)” value [4, 7] was “approximately 1.43%”, the “Hygroscopicity (25° C./80% RH), class in words” value [4] was “slightly” and the “Hygroscopicity (25° C./80% RH)” value ([4]; hydrochloride salt) was 1.43%. The “form change after DVS evaluation” value [4] was “No form change was observed” and the “stability relative to the other HCl form” value ([1]; conclusion drawn from the dog study results) was “less stable than HCl Form B”.

For `Cn1ncc(-c2ccc3c(=O)[nH]nc(CN)c3c2)c1-c1c(F)c(Cl)cc(OC2CC2)c1C#N` [HCl Form B, 2-(4-(4-(aminomethyl)-1-oxo-1,2-dihydrophthalazin-6-yl)-1-methyl-1H-pyrazol-5-yl)-4-chloro-6-cyclopropoxy-3-fluorobenzonitrile hydrochloride salt], the “water uptake (DVS isotherm)” value [4, 7] was “approximately 1.3%”, the “Hygroscopicity (25° C./80% RH), class in words” value [4] was “slightly” and the “Hygroscopicity (25° C./80% RH)” value ([4]; hydrochloride salt) was 1.3%. For the same compound, the “form change after DVS evaluation” value [4] was “No form change was observed”, the “compatibility (tensile strength vs porosity)” value ([5]; at high pressures) was “good” and the “compressibility (porosity vs compaction pressure)” value ([5]; at high pressures) was “good”. The “tabletability (tensile strength vs compaction pressure)” value ([5]; at high pressures) was “good”, the “phase stability by XRD after compression” value ([5]; high compaction pressure (300 MPa)) was “loss of crystallinity was observed” and the “dissolution rate in intestinal media” value ([2]; 37° C., 50 rpm, USP Type II) was “slightly faster dissolution rate than Free Base Form A”. The “dissolution in gastric media” value ([2]; 37° C., 50 rpm, USP Type II, hydrochloride salt) was “common ion effect slowing dissolution”.

In the case of `Cn1ncc(-c2ccc3c(=O)[nH]nc(CN)c3c2)c1-c1c(F)c(Cl)cc(OC2CC2)c1C#N` [HCl Form E, 2-(4-(4-(aminomethyl)-1-oxo-1,2-dihydrophthalazin-6-yl)-1-methyl-1H-pyrazol-5-yl)-4-chloro-6-cyclopropoxy-3-fluorobenzonitrile hydrochloride salt], the “water uptake (DVS isotherm)” value ([4]; 25° C. between 0% relative humidity and 80% relative humidity) is reported as “approximately 2.56%”, the “Hygroscopicity (25° C./80% RH), class in words” value [4] is reported as “slightly” and the “Hygroscopicity (25° C./80% RH)” value ([4]; hydrochloride salt) is reported as 2.56%. For the same compound, the “form change after DVS evaluation” value [4] was “No form change was observed”, the “Crystal Form” value ([6]; H2O (starting with Type E only) at 25° C., 4 d) was “Form B” and the “Crystal Form” value ([6]; H2O (starting with Type E only) at 25° C., 8 d) was “Form B”.

For `Cn1ncc(-c2ccc3c(=O)[nH]nc(CN)c3c2)c1-c1c(F)c(Cl)cc(OC2CC2)c1C#N` [HCl salt, 2-(4-(4-(aminomethyl)-1-oxo-1,2-dihydrophthalazin-6-yl)-1-methyl-1H-pyrazol-5-yl)-4-chloro-6-cyclopropoxy-3-fluorobenzonitrile hydrochloride salt], the “variability of plasma exposure” value ([1]; pentagastrin-treated dogs, oral 100 mg/dog, ascribed to common ion effect in the gastric media) was “high variability”.

With `Cn1ncc(-c2ccc3c(=O)[nH]nc(CN)c3c2)c1-c1c(F)c(Cl)cc(OC2CC2)c1C#N` [amorphous HCl salt, 2-(4-(4-(aminomethyl)-1-oxo-1,2-dihydrophthalazin-6-yl)-1-methyl-1H-pyrazol-5-yl)-4-chloro-6-cyclopropoxy-3-fluorobenzonitrile] the “Crystal Form” value ([6]; EtOH/H2O (40:60 v/v) at 25° C., 1d (a clear solution was obtained before precipitation)) was “Pattern A”.
